# “Also recorded” adds a separate entry of the source. Where two headings read alike, the source gives them in different places.
# Legend:
# [1] = system: dissociated hippocampal neurons; assay: Fluorescent tagging (TRA/FLA tag) of AHA- or HPG-incorporated proteins in neurons; type: cell-based, rat; conditions: 1 hour; for incorporation into neurons (fluorescent tag detection): DIV 17, 4 mM, 1 μM TRA or FLA tag
# Procedure: (§1) Dissociated hippocampal neuron cultures were prepared from newborn rat pups (PO) as outlined in (Banker and Goslin, 1990), Neurons were plated at a density of 15,000-45,000 cells/cm^2 onto poly-D-lysine coated cell culture dishes or onto poly-D-lysine and growth factor reduced matrigel (BD Biosciences) coated polycarbonate nets with a pore size of 3 μm (Transwell, Corning) for the preparation of isolated dendrites. The cultures were maintained and allowed to mature in growth medium (Neurobasal-A supplemented with B27 and GlutaMAX-1) for 14 to 21 days before use. The use of this growth medium suppressed glial proliferation, which was even more reduced by application of Ara-C (5 μM final concentration). To supplement glial neurotrophic factors, 25% conditioned growth media from glial and cortical cultures were added to the growth media. Isolated dendrites were obtained from Transwell cultures by removing the cell body layer with a sterile cell lifter after change to HBS. For immunolabeling after AHA-incorporation and cycloaddition with BiotinCyclooctyne, neurons are fixed at room temperature with 4% paraformaldehyde for 20 minutes. Fixed cultures are then treated sequentially with PBS, blocking solution (0.2% Triton X-100, 2 mg/ml BSA, 5% Sucrose, 10% normal horse serum in PBS), primary Ab in blocking solution at 4° C. overnight, PBS-Tx (0.2% Triton X-100 in PBS), Alexa488- or Alexa568-conjugated secondary Ab in blocking solution, PBS-Tx and PBS. Immunostained specimens are imaged in PBS with an Olympus confocal microscope or two-photon microscope through either a 10× or a 63× oil-immersion lens. Alexa568 is excited at 543 nm and Alexa488 at 488 nm. Images are recorded through standard emission filters at contrast settings for which the crossover between the two channels is negligible.
# In certain embodiments of the invention, two or more pairs of different non-natural amino acid/labeling reagents may be used to simultaneously or sequentially label the newly synthesized proteins. […]
# [2] = system: HEK293 cells; assay: Specificity of AHA labelling of newly synthesized proteins, anti-biotin Western blot after [3+2] cycloaddition; type: cell-based; conditions: 2 hrs with AHA plus inhibitor
# Procedure: In embodiments using [3+2] Cycloaddition, the following exemplary protocol may be used. Briefly, AHA, Biotin-PEO-Propargylamide and the triazole ligand were prepared as described previously. The tandem featured alkyne tag was synthesized by GenScript Corporation. Biotin-Cyclooctyne is a generous gift from Carolyn Bertozzi. D10-L-leucine was purchased from Sigma. In all culture experiments, growth medium was removed from HEK293 cells, whole neuronal cultures or isolated dendrites were replaced with HEPES-buffered solution (HBS) with 2.86 mM AHA, and 2.86 mM methionine for control experiments. After incubation at 37° C., 5% CO2, cells were washed with PBS-MC (1 mM MgCl2, 0.1 mM CaCl2 in PBS) to remove excess amounts of AHA and methionine. SNS and other biochemical fractions are incubated with 2.86 mM AHA or 2.86 mM methionine under agitation at 37° C. and washed in StimBuffer after incubation. […]
# (§2) To show the specificity of this technique for the detection of newly synthesized proteins, HEK293 cells were incubated for 2 hrs with AHA in the presence or absence of a protein synthesis inhibitor (Anisomycin or Cycloheximide). […] The potential for increased protein degradation was measured by examining the ubiquitin signal strength on a Western blot from whole lysates of HEK293 cells, which were treated with AHA, methionine or incubation buffer for two hours.
# [3] = system: dendrites of hippocampal neurons; assay: Time-course of detection of newly synthesized proteins in dendrites; type: cell-based, rat
# Procedure: as §1
# Representative straightened dendrites of neurons (DIV 16) incubated with 4 mM AHA, 4 mM Methionine (Met) or AHA plus 40 μM anisomycin (Aniso) for time points indicated. The lookup table indicates fluorescence intensity. The left end is the proximal end, the right end is the distal end. […]
# [4] = system: hippocampal dysembryoplastic neuroepithelial tumor (DNT) tissue; assay: AHA labelling of newly synthesized proteins in freshly dissected DNT tumor versus control tissue, anti-biotin Western blot; type: cell-based, human; conditions: 4 mM AHA, 1 hour, 37° C., equal total protein; control lateral temporal cortex of the same patient
# Procedure: FIG. 5: Detection of newly synthesized proteins in cells of acutely dissected human brain tissue. Tumor and control cells were trypsinized and triturated before incubation with 4 mM AHA for 1 hour at 37° C. After cell lysis and Cu(I)-catalyzed tagging with a biotin-FLAG-alkyne tag, samples were subjected to Neutravidin-purification to separate newly synthesized proteins from pre-existing proteins, and analyzed on a Western blot using an anti-biotin antibody. Same total protein amounts were used for both tumor and control tissue. Input: sample before affinity purification; Supernatant: unbound material after Neutravidin-purification; NA: Neutravidin.
# Having obtained the proper conditions for labeling dissected tissues, Applicants repeated the experiments in freshly dissected human DNT tumor tissues and control tissues. […] As a control, non-diseased tissue (lateral temporal cortex) from the same patient was analyzed along with the DNT tissue.
# Freshly dissected tumor and control tissue were obtained in operating room. To ensure optimal uptake of AHA, both tissues were trypsinized and triturated into single cells before treatment with AHA and deuterated 1-lysine. Incubation with AHA was done at 37° C. under constant agitation. The tissues were subsequently lysed in SDS and Tx-100 buffer, and the newly synthesized proteins were Neutravidin (NA)-purified. […]
# [5] = system: HEK293 cells; assay: Ubiquitin signal on Western blot of whole lysates (protein degradation/misfolding); type: cell-based; conditions: HEK293 cells treated two hours, compared to buffer or methionine controls
# Procedure: as §2, with “Cycloheximide). After incubation, cells were lysed and subjected to [3+2]cycloaddition with the biotin-bearing alkyne-linker Biotin-PEO-Propargylamide, followed by Western blot analysis with an anti-Biotin-antibody.” for “Cycloheximide).”
# [6] = system: mammalian cells, primary neuronal cell cultures; conditions: Dieterich et al. 2006, cited from earlier work
# [7] = system: acute hippocampal slices; assay: AHA incorporation in acute hippocampal slices, Biotin-PEO tagging, Neutravidin, Western blot; type: cell-based, rat; conditions: 400 μm slices, varying concentrations of AHA, 1.5 hours
# Procedure: These slices were recovered in artificial cerebrospinal fluid (ACSF) for at least 1 hour on organotypic membranes. Upon recovery, the slices were incubated with either a mixture of ^35S Met and ^35S Cys, or varying concentrations of AHA for 1.5 hours. FIG. 3C is a Western blot analysis for AHA-incorporated proteins from acute hippocampal slices. After AHA incorporation and slice homogenization, the homogenates were subjected to [3+2]-cycloaddition with a Biotin-PEO tag, and proteins incorporating AHA (and thus subsequently labeled by the Biotin-PEO labeling moiety) were concentrated using Neutravidin-conjugated beads (which binds the Biotin-PEO labeling moiety).
# [8] = system: mammalian cells, primary neuronal cell cultures; assay: General properties of AHA in cell cultures (previous experiments and literature); type: cell-based
# [9] = system: Dissociated hippocampal cultured neurons; assay: Toxicity of AHA by gross morphology of GFP-expressing neurons; type: cell-based, rat; conditions: 12 DIV neurons, 2 hrs, equimolar AHA or methionine control
# Procedure: Dissociated hippocampal neuron cultures were prepared from newborn rat pups (PO) as outlined in (Banker and Goslin, 1990), Neurons were plated at a density of 15,000-45,000 cells/cm^2 onto poly-D-lysine coated cell culture dishes or onto poly-D-lysine and growth factor reduced matrigel (BD Biosciences) coated polycarbonate nets with a pore size of 3 μm (Transwell, Corning) for the preparation of isolated dendrites. The cultures were maintained and allowed to mature in growth medium (Neurobasal-A supplemented with B27 and GlutaMAX-1) for 14 to 21 days before use. […] To supplement glial neurotrophic factors, 25% conditioned growth media from glial and cortical cultures were added to the growth media. Isolated dendrites were obtained from Transwell cultures by removing the cell body layer with a sterile cell lifter after change to HBS. For immunolabeling after AHA-incorporation and cycloaddition with BiotinCyclooctyne, neurons are fixed at room temperature with 4% paraformaldehyde for 20 minutes. […] Images are recorded through standard emission filters at contrast settings for which the crossover between the two channels is negligible. […]
structure (smiles),measurement,setting,value
"C#CCCC(N)C(=O)O (stereo not drawn) [HPG, Homopropargylglycine]",incorporation into neurons (fluorescent tag detection),[1],successfully incorporated
C[C@@H]1C[C@@H]([C@H](O)CC2CC(=O)NC(=O)C2)C(=O)[C@@H](C)C1 [Cycloheximide],anti-biotin signal of AHA-labelled proteins in the presence of the protein synthesis inhibitor,[2],No signal was detected
"COc1ccc(C[C@H]2NC[C@H](O)[C@H]2OC(C)=O)cc1 [Anisomycin, reference compound]",effect of the protein synthesis inhibitor on AHA labelling of dendrites,[3]; 40 μM with AHA,completely inhibited
same,effect of the protein synthesis inhibitor on AHA incorporation,[1]; 40 μM with 4 mM AHA,completely abolished AHA incorporation
same,anti-biotin signal of AHA-labelled proteins in the presence of the protein synthesis inhibitor,[2],No signal was detected
"[N-]=[N+]=NCC[C@H](N)C(=O)O [AHA, azidohomoalanine]","level of protein synthesis by AHA labelling, tumor versus non-diseased tissue",[4],substantially higher in cells from tumor tissue
same,ubiquitination of total protein,[5],No increased ubiquitination
same,global protein synthesis rates,[6],no evidence that AHA exposure alters global protein synthesis rates
same,ubiquitination of total protein,[6]; compared to buffer or methionine controls,no increase in the ubiquitination
same,cell toxicity,[6]; incl. primary cultured postnatal neurons,not toxic to cells
same,time at which AHA incorporation was visible,"[3]; DIV 16, 4 mM AHA",10 min
same,time by which whole neuron soma and dendrite was filled with AHA-labeled proteins,"[3]; DIV 16, 4 mM AHA",≤ 40 min
same,incorporation into neurons (fluorescent tag detection),[1],successfully incorporated
same,incorporation into newly synthesized proteins (biotinylated proteins after Neutravidin),[7],vast enrichment of biotinylated proteins
same,cell toxicity,[8],not toxic even in primary neuronal cell cultures; also recorded: undetected cell toxicity
same,membrane permeability,[8],excellent membrane permeability
same,protein degradation upon introduction of AHA,[8]; E. coli and mammalian cells,no evidence of increased protein degradation
same,"toxicity to neurons (gross morphology, GFP expression in the dendritic arbor)",[9],not toxic to neurons
